Source: patent publication US9023653B2, “Method of labeling sulfenic acid-containing proteins and peptides” (Wake Forest University Health Sciences, priority 2011, dated 2015)

Key:
[1] = test system: C165S AhpC-SH, C165S AhpC-SO2H and —SO3H, WT AhpC-S—S-AhpC; assay: Control experiments using AhpC-SH, AhpC-SO2/3H and WT AhpC proteins (ESI-TOF MS); type: biochemical, bacteria; details: 5 mM, pH 7.4, 1.5 h at r.t.
Protocol: (§1) Reduced form of C165S AhpC(C165S AhpC-SH), hyperoxidized protein (C165S AhpC-SO2H and —SO3H) and WT AhpC (disulfide crosslinked dimer, […]) were incubated with 1 (5 mM) for 1.5 h at r.t., pass through the Bio-Gel spin column and analyzed by ESI-TOF MS. C165S AhpC-SO2H and —SO3H were generated by incubating C165S AhpC-SH (250 μM) in ddH2O with 20 equivalents H2O2 for 1 h at r.t. with mixing. The excess H2O2 was removed using Bio-Gel spin columns and protein concentration was determined based on absorbance at 280 nm using the extinction coefficient 24,300 (M^−1 cm^−1).
(§2) ESI-TOF-MS analysis was performed on Agilent MSD TOF system in positive ion mode with the following settings: capillary voltage (VCap) 3500 V, nebulizer gas 30 psig, drying gas 5.0 L min^−1; fragmentor 140 V; gas temperature 325° C. The samples were injected at a flow rate of 20 μL min^−1, using a syringe pump (KD Scientific). The averaged MS spectra were deconvoluted using the Agilent MassHunter Workstation Software v B.01.03.

[2] = target: C165S AhpC-SOH (Salmonella typhimurium, UniProt P0A251, C166S); assay: Labeling of C165S AhpC-SOH monitored by ESI-TOF MS; type: biochemical, bacteria
Protocol: The C165S AhpC was reduced in 10 mM DTT at room temperature for […] and the DTT was then removed by passing the protein solution through a Bio-Gel spin column equilibrated with ddH2O. The protein concentration was measured based on absorbance at 280 nm using the extinction coefficient 24,300 (M^−1 cm^−1). Typically, 200-400 μM C165S AhpC protein was oxidized to —SOH by incubating with 2 equivalents H2O2 for […] at r.t. with mixing. The excess H2O2 was removed using Bio-Gel spin columns equilibrated with ddH2O.
The C165S AhpC-SOH protein generated as described above was diluted to 50 μM in 50 mM Bis-tris-citric acid buffer (pH 7.4) containing 5 mM (final concentration) of reagent 1. After 3 h incubation with mixing, 30 μL aliquot of reaction mixture was passed through a Bio-Gel column equilibrated with 0.1% formic acid for ESI-TOF MS analysis. […] The covalent C165S AhpC-1 adduct was incubated with 50 mM-1 M hydroxylamine (stock 1N hydroxylamine, pH 8.0-8.5, adjusted by adding 2 N NaOH or 1 N ammonium bicarbonate) for 1 h at 37° C. before passing through the Bio-Gel column for ESI-TOF MS analysis.
The C165S AhpC-SOH protein was immediately aliquot to appropriate buffers: 50 mM Bis-tris-citric acid pH 7.4, 8.5, and 9.5, and 25 mM critic acid-Na2HPO4 buffers pH 5.5, and 6.5. Final concentrations of 50 μM protein and 5 mM labeling reagents (dimedone or 2) were used for all reactions. Dimedone stock was made in 0.5 M Bis-tris and DMSO (v:v=1:1) to pre-buffer its acidity around 6.5 before adding it to the reaction buffers. Final DMSO concentration during labeling was 0.5%. At the end of the incubation time (4 h for data in FIG. 1—pH 7.4 and 8.5; 90 min for data in FIG. S5A—pH 5.5-9.5), 30 μl, reaction mixture at each pH was passed through a Bio-Gel spin column and analyzed by ESI-TOF MS. Data were fit using SigmaPlot 11.0 and the user defined equation below to obtain the pKa: […]
The C165S AhpC-SOH was incubated with increasing concentrations of 2 (0.2, 0.5, 1, 5, and 10 mM) for 2 h in 50 mM Bis-tris-citric acid (pH 7.4) at r.t. The reaction mixture (30 μL) was passed through a Bio-Gel spin column and analyzed by ESI-TOF MS. Data were fit to a hyperbolic equation to determine K0.5 using SigmaPlot 11.0.
C165S AhpC-SOH protein was first labeled by 2 at pH 9.5 for 1 h and passed successively through three Bio-Gel spin columns equilibrated with PBS to remove the unreacted 2. Near 100% labeling of AhpC was configured by ESI-TOF MS. The C165S AhpC-2 adduct concentration was measured at 280 nm using the extinction coefficient 24,300 (M^−1 cm^−1) and then diluted in PBS to a final concentration of 50 μM. Click reaction was conducted by adding the following reagents in order: biotin-OEG11-azide (1 mM, final, from 50 mM stock in DMSO), TCEP (2 mM, final, from 100 mM stock freshly made in H2O), TBTA (0.1 mM, final, from 1.7 mM stock made in 1:4 DMSO/t-butanol) and CuSO4 (1 mM, final, from 50 mM stock in H2O). The mixture was incubated at r.t. for 2 h and then 30 μL of reaction mixture was passed through a Bio-Gel column equilibrated with 0.1% formic acid for ESI-TOF MS analysis. The biotin moiety was removed by hydroxylamine treatment as described above and the reaction products were analyzed by ESI-TOF MS.
as §2

[3] = cited from earlier work
[4] = test system: —SOH proteins in NIH 3T3 cell lysates; assay: Labeling of —SOH proteins in NIH 3T3 cell lysates (click biotinylation, Western blot); type: biochemical; details: for labeling of lysate proteins (streptavidin-HRP signal): 5 mM
Protocol: NIH 3T3 cells were cultured to 95% confluence in complete media (DMEM High Glucose (Invitrogen) supplemented with 10% fetal bovine serum (FBS, Invitrogen) and 1% penicillin & streptomycin (Invitrogen)). Cells were washed with PBS three times and lysed using 5 mM of 2 in lysis buffer (50 mM NaCl, 1 mM EDTA, 1 mM EGTA, 10% Glycerol, 1% Triton X-100, 25 mM NaF, 10 μM ZnCl2, supplemented with protease and phosphatase inhibitor tablets (Roche)). Lysis buffer was made in 50 mM citric acid/Na2HPO4 when labeling was carried out at pH 5.5 and 7.4, and in 50 mM NaHCO3/Na2CO3 for labeling at pH 9.5. Lysates were incubated for 2 h at r.t. and then quenched by adding cold MeOH/CHCl3^[1] to remove excess 2.
Cells were lysed using lysis buffer (pH 7.4) supplemented with 2 (5 mM) as described above. The labeling was allowed to proceed at r.t. for 2 h before quenching with MeOH/CHCl3. Protein pellets precipitated from 200 μL lysate were resuspended in 50 μL, 1% SDS in PBS, sonicated for 30 s and finally heated at 95° C. for 5 mins. Protein concentration was measured using Bio-Rad protein assay (SDS concentration in the assay 0.001%) and normalized to the same concentration. Click reaction was performed using the solubilized lysate proteins according to the procedures described above. After 2 h incubation, 15 μL reaction aliquot from each sample was mixed with 5 μL sample buffer (with β-mecaptoethanol) for SDS-PAGE and Western blot analysis. Biotinylated proteins were probed using Streptavidin-HRP. In control experiments, lysates were pre-reduced with 10 mM TCEP at pH 7.4 for 1 h at r.t. before the addition of 2; lysates prepared in the absence of 2 with or without click reaction were also included in the SDS-PAGE and Western blot analysis.

[5] = target: C165S AhpC-SH, C165S AhpC-SO2H and —SO3H, WT AhpC-S—S-AhpC (Salmonella typhimurium, UniProt P0A251, C166S); assay: Control experiments using AhpC-SH, AhpC-SO2/3H and WT AhpC proteins (ESI-TOF MS); type: biochemical, bacteria; details: pH 9.5
Protocol: as §1, §2

[6] = test system: SCC-61 cells; assay: MTT assay (cell viability); type: cell-based; details: 1 h incubation, 1-20 mM
Protocol: MTT (3-(4,5-dimethylthiazol-2-yl)-2,5-diphenyltetrazolium bromide) assay was used to test the SCC-61 cell viability when incubated with dimedone or 2 for 1 h. SCC-61 cells were seeded in a 96-well plate at a density of 5,000 per well in 50 μL, and incubated overnight. Dimedone or 2 (50 μL) was added to each well at final concentrations of 1, 2.5, 5, 10, and 20 mM. Plates were then incubated for 1 h at 37° C. in a humidified atmosphere with 5% CO2. MTT labeling reagent (Roche; 5 mg/ml in PBS, 10 μL) was added to each well, and the plate was incubated for 4 h at 37° C. The solubilization solution (100 μL) was then added to each well for overnight incubation at 37° C. The following day, absorbance was measured at 570 nm and all experiments were repeated twice. The resulting curves were fitted using SigmaPlot software to a sigmoidal dose-response equation to determine the IC50. The IC50 represents the concentration of chemical probe causing a 50% reduction in cell viability.

[7] = test system: NIH 3T3 cells; assay: DCF assay (intracellular ROS level); type: cell-based; details: 10 mM, 2 h
Protocol: NIH 3T3 cells cultured in 60-mm dishes were serum starved overnight and incubated with 10 mM dimedone, reagent 2 or 1% DMSO individually for 2 h. 5-(and-6)-carboxy-2′,7′-dichloro-dihydrofluorescein diacetate (carboxy-H2DCFDA) (100 μM; Invitrogen) was added to cells at room temperature after the incubation. The cells were then immediately washed twice with PBS and visualized with Arcturus PixCell II laser capture microscope using 20× objective.

[8] = test system: SCC-61 cells; assay: Cell membrane permeability assay; type: cell-based; details: 10 mM, 2 h
Protocol: SCC-61 cells were cultured to 95% confluence in complete media (DMEM/F12 High Glucose (Invitrogen) supplemented with 10% fetal bovine serum (FBS, Invitrogen), 1% penicillin & streptomycin (Invitrogen)). Cells were washed with HBSS buffer (pH 7.4) three times and incubated with 10 mM probe 2 in HBSS at r.t. for 2 h. Cells incubated in HBSS without 2 were included as controls. After the incubation, cells were carefully washed by HBSS three times to remove excess 2 and lysed with the lysis buffer described above except in the absence of 2. Lysates were incubated at r.t. for additional 2 h to ensure complete labeling prior to the addition of cold MeOH/CHCl3 for protein precipitation. The denatured proteins were resolubilized in 1% SDS (in PBS) for the click reaction, which was then followed by Western-blot analysis as described above.

Chain of C165S AhpC-SOH (P0A251 whole entry C166S): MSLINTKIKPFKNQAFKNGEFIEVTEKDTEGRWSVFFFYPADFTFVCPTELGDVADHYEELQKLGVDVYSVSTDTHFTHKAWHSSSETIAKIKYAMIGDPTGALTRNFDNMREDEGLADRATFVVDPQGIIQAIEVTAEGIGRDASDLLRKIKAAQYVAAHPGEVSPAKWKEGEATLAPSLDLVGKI
Chain of C165S AhpC-SH, C165S AhpC-SO2H and —SO3H, WT AhpC-S—S-AhpC (Salmonella typhimurium, UniProt P0A251, C166S) (P0A251 2-187 C166S): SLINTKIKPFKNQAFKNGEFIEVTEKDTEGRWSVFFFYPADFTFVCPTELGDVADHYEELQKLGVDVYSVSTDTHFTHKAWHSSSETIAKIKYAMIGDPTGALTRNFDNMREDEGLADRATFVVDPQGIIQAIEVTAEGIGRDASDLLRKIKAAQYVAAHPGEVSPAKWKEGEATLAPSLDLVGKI

Compound	reaction with —SH, —S—S—, —SO2/3H, or other amino acid residues [1]	labeling of C165S AhpC-SOH (adduct product peak) ([2]; AhpC 50 uM, reagent 5 mM, pH 7.4, 3 h)	enol content ([3]; in aqueous solution)	labeling of lysate proteins (streptavidin-HRP signal) ([4]; pH 5.5)	labeling of lysate proteins (streptavidin-HRP signal) ([4]; pH 7.4 and 9.5)	selectivity of labeling in cell lysates ([4]; pH 7.4, lysates pre-reduced with TCEP as control)	adduct formation with reduced form of C165S AhpC [5]	effect on cell viability [6]	reactivity with AhpC-SOH as pH increases ([2]; higher pH (up to 9.5))	reactivity with AhpC-SOH at low pH ([2]; pH 5.5 and 6.5)	K0.5 (hyperbolic fit of labeling vs probe concentration) ([2]; pH 7.4, 2 h, r.t., 0.2-10 mM probe)	labeling of —SOH compared with dimedone ([2]; pH 7.4 and 8.5, 50 μM protein, 5 mM reagent, 4 h)	intracellular ROS level (DCF) [7]	cell permeability (biotin signal after click reaction) [8]	IC50 ([6]; read-out: IC50 (50% reduction in cell viability))	reactivity at mildly acidic or basic conditions compared to pH 7.4 ([2]; data not shown)	keto-enol tautomerism state ([3]; reported)	pKa for the carbon between keto groups ([3]; reported)
COC(=O)CC(C)=O [compound 1, methyl acetoacetate]	did not react	labeling of C165S AhpC-SOH	7.4%															
C#CCCOC(=O)CC(C)=O [compound 2, but-3-yn-1-yl 3-oxobutanoate]				no visible signal	Nearly equal labeling	selective towards —SOH	no adduct formation	did not significantly affect cell viability	becomes highly reactive	reacts very slowly	3.0 ± 0.3 mM	Increased labeling	did not alter the basal level of ROS	cell permeable				
CC1(C)CC(=O)CC(=O)C1 [dimedone, 5,5-dimethyl-1,3-cyclohexanedione, reference compound]													significant increase in ROS		5.3 ± 0.2 mM	slight increase in reactivity	exclusively in the enol state	4.3
